Consider one sequence from patent US20140066370A1, “Polypeptide Conjugate” (priority 2009, published 2014).

The subject of data set [1] is diet-induced obese (DIO) male Sprague Dawley rats. Kind of data set: DIO rat 4-week constant sc infusion: body weight. Format: in vivo. To be noted: DIO rats. Here is the method:
(§1) Various metabolic and PK parameters were evaluated.
(§2) Study Design. The Polypeptide Conjugates were tested relative to vehicle (50% DMSO in sterile water) and parent compounds alone and in combination (see Table 1).
(§3) Food intake and body weight were measured weekly. Body composition was assessed on day −1 and day 28 using an NMR instrument (Echo Medical Systems, Houston, Tex.). Adiposity (percent fat mass) was defined as the amount of fat mass relative to body weight (fat mass/body weight×100). Blood was collected via tail vein on day 14. On day 28 a sample of blood was drawn via the jugular vein and animals were euthanized by isoflurane overdose. Mini-pumps were immediately removed, animals were subjected to a brief NMR scan, and tissues were collected for future histological examination and preliminary toxicological assessment.
(§4) Statistical Analysis. Data were analyzed using one-way analysis of variance (ANOVA) with Newman-Keuls post-hoc comparisons. Significance was assumed for p<0.05. Graphs were generated using Prism 4 for Windows (Graphpad Software, San Diego, Calif.). All data points are expressed as mean±SEM.

Data set [2] has the same test system. Description: DIO rat 4-week constant sc infusion: cumulative food intake. Format: in vivo. To be noted: highest dose tested (100 nmol/kg/d). As for the experimental part:
as §1, §2, §3, §4

Data set [3] is described as follows: in vivo blood calcium lowering (amylin agonist property).
For data set [4] the following is noted: human kidney brush border membrane matrices, 5 hr incubation; detection limit 10%.

Turning to “HGEGTFTSDLSKQLEEEAVRLFIEWLKQGGPSKEIISGGGKCNTATCVLGRLSQELHRLQ TYPRTNTGSNTY-NH2 [Cmpd 2A]”, in data set [1], the “potency at reducing body weight via sustained infusion relative to Cmpd 3A” value is on record as “several fold more potent”. The “four week vehicle-corrected weight loss” value in data set [1] (sc infusion, 100 nmol/kg/d) is listed as −31.5±2.7%. For the same sequence, the Maximal weight loss in data set [1] (sc infusion, 100 nmol/kg/d group) is on record as −27.8±5.3%. For the same sequence, the “body weight over the 28 day treatment relative to vehicle” value in data set [1] (sc infusion, doses of Table 1 (conjugates 3, 10, 30 and 100 nmol/kg/d), p<0.05) is “dose-dependently reduced body weight significantly”. Besides, in data set [2], the “total food intake relative to single parent peptide administration” value was “significantly reduced”. Also, the blood calcium result in data set [3] is “lower blood calcium”. Moreover, the metabolites detected entry in data set [4] is reported as “No metabolites were detected”.
